Patent US8697033B2, “Modified pyrazine derivatives and uses thereof” (Medibeacon, LLC, priority 2008, dated 2014)
Marks after values point to notes of the source that are not given here.

Tests used:
[1] = Photophysical properties (excitation and emission maxima in PBS); format: physicochemical; settings: 10 μM solution in PBS
Protocol: 3.2. Photophysical properties and protein binding. In general, renally excretable compounds are dissolved in PBS buffer to form a 2 mM stock solution. The UV absorbance properties are determined on a 100 μM solution in PBS using a UV-3101PC UV-Vis-NIR Scanning spectrophotometer system from Shimadzu. The fluorescence properties (λex, λem, and CPS at λem) are determined on a 10 μM solution in PBS using a Fluorolog-3 spectrofluorometer system from Jobin Yvon Horiba. The percent plasma protein binding are determined on a 20 μM compound solution in rat plasma incubated at 37° C. for 1 h. The separation of free from bound is made using an Amicon Centrifree YM-30 device (Regenerated Cellulose 30,000 MWCO) and a Z400K Refrigerated Universal Centrifuge from Hermle. The concentration of protein-free is determined via HPLC analysis using a set of external calibration standards and fluorescence detection.

[2] = Invasive pharmacokinetic (PK) studies (plasma concentration by HPLC); format: in vivo, Sprague-Dawley rats; settings: rat, 1 mL of 2 mM solution i.v., plasma samples 0-120 min, mean ± SEM; for clearance: male, Sprague-Dawley, iv
Protocol: 3.6. Invasive pharmacokinetic (PK) studies. Male Sprague-Dawley rats (330-380 g) are anesthetized by Inactin (I.P.). Rats are surgically instrumented with a trachea tube (PE-190) to facilitate breathing and femoral artery and vein catheters (PE-50 filled with 20 units/mL heparinized saline) for blood sampling and drug administration respectively. After administration of 1 mL of a 2 mM solution of agent, approximately 200 μL of blood is sampled and placed into a heparinized tube (Microtainer Brand Tube w/Lithium Heparin, BD 365971) at 0, 1, 6, 12, 18, 30, 45, 60, 90, 120 min. The concentration of compound in each centrifuged plasma sample is determined via HPLC analysis using a set of external calibration standards and fluorescence detection. The resulting pharmacokinetic parameters of the compound are analyzed using WinNonLin pharmacokinetic modeling software (Pharsight, Mountain View, Calif.). This method is used to detect renally excretable compounds of the invention and FIG. 8 provides a plot illustrating invasive PK (plasma concentration) as a function of time following delivery of a renally excretable compound.

[3] = Urine elimination studies; format: in vivo, Sprague-Dawley rats; settings: rat, 1 mL of 2 mM in PBS by tail vein injection, 6 h post injection; mean ± SEM
Protocol: 3.3. Urine elimination studies. Rat urine elimination studies are conducted in either conscious or anesthetized Sprague-Dawley rats. The test compound (1 mL, 2 mM in PBS) is administered by tail vein injection into conscious, restrained rats, with subsequent collection of urine at the time points of 2, 4 and 6 h post injection. The metabolic cages are washed with water to maximize the recovery of urine discharged at each time point. Alternatively, rats are anesthetized with 100 mg/kg Inactin intraperitoneally, a trachea tube is inserted to maintain adequate respiration, and 1 mL of test compound is injected into the lateral tail vein. Rats are placed on 37° C. heating pad during the entire experiment. At 6 h post injection, the abdomen is opened, and the urine is removed from the bladder using a 21 gauge needle and a 3 cc syringe. Quantitation of each compound in urine is performed via HPLC analysis using a set of external calibration standards and fluorescence detection. The percent recovery of compound in urine at each time point is calculated based on the balance of mass.

[4] = Non-invasive optical pharmacokinetic studies (fluorescence at the ear); format: in vivo, Sprague-Dawley rats; settings: rat, 1 mL of 2 mM solution into tail vein, fluorescence monitored at the ear; mean ± SEM
Protocol: 3.4. Non-Invasive optical pharmacokinetic studies. Male Sprague-Dawley rats (330-380 g) are anesthetized by Inactin (I.P.) or 2% Isoflurane gas anesthesia delivered by a small rodent gas anesthesia machine (RC2, Vetequip, Pleasanton, Calif.). The animals are placed on a heated board where temperature is maintained between 36-38° C. One ear lobe is glued flat to a glass slide positioned approximately 2 mm beneath a fiber optic bundle for recording fluorescence from a test compound passing through the ear. After a 100 second baseline recording, 1 mL of a 2 mM solution is injected into the tail-vein of the rat and the fluorescence signal corresponding to plasma and tissue distribution and subsequent renal clearance of the compound is monitored at the ear. The pharmacokinetic parameters of the compounds are analyzed using WinNonLin pharmacokinetic modeling software (Pharsight, Mountain View, Calif.) and Microsoft (Redmond, Wash.) Excel. This method is used to detect renally excretable compounds of the invention and FIG. 6 provides a plot illustrating non-invasive in vivo fluorescence as a function of time following delivery of a renally excretable compound.
3.5. Optical monitoring apparatus and protocol. A nominal 473 nm solid state laser source (100) is employed (Power Technology model LDCU12/7314). […]

Photophysical Properties Emission λmax [1]	Photophysical Properties Excitation λmax [1]	clearance [2]	Plasma PK Clearance T1/2β [2]	Percent in Urine (6 hrs) [3]	Tissue clearance (Optical) T1/2β [4]	Structure (SMILES)
613 nm	498 nm	3 ± 0.2 mL/min	21.7 ± 1.3 (3)^b min	–	–	CCCNc1nc(C(=O)NCCNC(=O)CCOCCOCCOCCOCCOCCOCCOCCOCCOCCOCCOCCOC)c(NCCC)nc1C(=O)NCCNC(=O)CCOCCOCCOCCOCCOCCOCCOCCOCCOCCOCCOCCOC [Compound 1, N^2,N^5-Bis(38-oxo-2,5,8,11,14,17,20,23,26,29,32,35-dodecaoxa-39-azahentetracontan-41-yl)-3,6-bis(propylamino)pyrazine-2,5-dicarboxamide]
611 nm	501 nm	4.3 ± 1.1 mL/min	15.2 ± 6.7 (2) min	85 ± 2 (3) Percent	20.5 ± 2.5 (3) min	CCCNc1nc(C(=O)NCCOCCOCCOCCOCCOCCOCCOCCOCCOCCOCCOCCOCCOCCOCCOCCOCCOCCOCCOCCOCCOCCOCCOCCOC)c(NCCC)nc1C(=O)NCCOCCOCCOCCOCCOCCOCCOCCOCCOCCOCCOCCOCCOCCOCCOCCOCCOCCOCCOCCOCCOCCOCCOCCOC [Compound 4, 3,6-Bis(propylamino)-N^2,N^5-di(2,5,8,11,14,17,20,23,26,29,32,35,38,41,44,47,50,53,56,59,62,65,68,71-tetracosaoxatriheptacontan-73-yl)pyrazine-2,5-dicarboxamide]
